The results in this text go back to article PMC11822212, “High-throughput screening identifies Aurora kinase B as a critical therapeutic target for Merkel cell carcinoma” (Nature Communications, 2025).

One test concerns MCC13 cells (VN-MCC). Description: qHTS cell viability (CellTiter-Glo, 72 h; primary and follow-up small molecule screen). It counts as cell-based, human.
The subject of another test is MCC26 cells (VN-MCC). Described as above. It counts as cell-based, human.
In another test the test system is UISO cells (VN-MCC). The description is as above. It counts as cell-based, human.
In another test the test system is WAGA cells (VP-MCC). Described as above. It counts as cell-based, human.
For the next test, the system named is MKL-1 cells (VP-MCC). The test is described as above. It counts as cell-based, human.
In the next test the test system is MKL-2 cells (VP-MCC). Described as above. It counts as cell-based, human.
The subject of a further test is HACAT cells. Description: qHTS cell viability (CellTiter-Glo, 72 h; primary screen), control cell line. It counts as cell-based, human. Background: In qHTS, concentration-response curves come from the screen itself.
The subject of another test is HEK293T cells. The description is as above. It counts as cell-based, human.
For a further test, the system named is NIH-3T3 cells. The description is as above. It counts as cell-based, mouse.
For another test, the system named is CRL-7250 cells. The test is described as above. It counts as cell-based.
The test system of test [1] is MCC cell lines (WAGA, MKL-1, MKL-2, MCC13, MCC26, UISO). Description: qHTS cell viability, all six MCC cell lines as a group (mean AUC, MCC.avg). It counts as cell-based, human.
Test [2] has as its system VP-MCC cell lines (WAGA, MKL-1, MKL-2). Kind of test: qHTS cell viability, VP-MCC cell lines as a group (mean AUC, VP.MCC.avg). It counts as cell-based, human.
Test [3] deals with VN-MCC cell lines (MCC13, MCC26, UISO). Description: qHTS cell viability, VN-MCC cell lines as a group (mean AUC, VN.MCC.avg). It counts as cell-based, human.
For test [4], the system named is control cell lines (HACAT, HEK293T, CRL-7250, NIH-3T3). Description: qHTS cell viability, control cell lines as a group (mean AUC, Control.avg). It counts as cell-based.
Test [5] deals with six MCC cell lines and four control cell lines. Description: qHTS cell viability, all 10 cell lines screened. It counts as cell-based.
Where [6] appears, read: NPC library, qHTS dose-response AUC, MCC13.
The mark [7] stands for this setting: NPC library, qHTS dose-response AUC, MCC26.
[8] abbreviates: NPC library, qHTS dose-response AUC, UISO.
[9] abbreviates: NPC library, qHTS dose-response AUC, WAGA.
[10] abbreviates: NPC library, qHTS dose-response AUC, MKL1.
Where [11] appears, read: NPC library, qHTS dose-response AUC, MKL2.
Setting [12] is: NPC library, qHTS dose-response AUC, HACAT control.
Where [13] appears, read: NPC library, qHTS dose-response AUC, HEK293T control.
The mark [14] stands for this setting: NPC library, qHTS dose-response AUC, NIH3T3 control.
The mark [15] stands for this setting: NPC library, qHTS dose-response AUC, CRL7250 control.
Where [16] appears, read: NPC library, mean AUC of six MCC cell lines.
Setting [17] is: NPC library, mean AUC of VP-MCC cell lines.
[18] abbreviates: NPC library, therapeutic window: Control avg AUC minus VP-MCC avg AUC.
The mark [19] stands for this setting: NPC library, mean AUC of VN-MCC cell lines.
Setting [20] is: NPC library, therapeutic window: Control avg AUC minus VN-MCC avg AUC.
Where [21] appears, read: NPC library, mean AUC of control cell lines.
Where [22] appears, read: NPC library, therapeutic window: Control avg AUC minus MCC avg AUC.

Where a name gives a salt, the structure may show the parent alone. Read-outs that look alike come from different tables or passages of the source.

On to `CNCc1ccccc1.Cl` [N-Methylbenzylamine hydrochloride], for which, in the test with MCC13 cells (VN-MCC) (setting [6]), the MCC13_AUC came to 438.819. The molecule also displayed an MCC26_AUC in the test on MCC26 cells (VN-MCC) (setting [7]) of 480.435. This molecule yielded a UISO_AUC in the test on UISO cells (VN-MCC) (setting [8]) of 548.944. In the test with WAGA cells (VP-MCC) (setting [9]), this molecule showed a WAGA_AUC of 372.649. This molecule returned an MKL1_AUC in the test with MKL-1 cells (VP-MCC) (setting [10]) of 390.814. In the test on MKL-2 cells (VP-MCC) (setting [11]), this molecule had an MKL2_AUC of 343.012. This molecule also displayed an HACAT_AUC in the test with HACAT cells (setting [12]) of 476.463. Besides, the HEK293T_AUC in the test on HEK293T cells (setting [13]) was 408.972. The same molecule returned an NIH3T3_AUC in the test with NIH-3T3 cells (setting [14]) of 497.435. Besides, the CRL7250_AUC in the test on CRL-7250 cells (setting [15]) was 502.537. The MCC_Avg_AUC in test [1] (setting [16]) amounted to 429.112. The VP-MCC_Avg_AUC in test [2] (setting [17]) was 368.825. In addition, in test [2] (setting [18]), the Control-VP-MCC is reported as 102.527. The VN-MCC_Avg_AUC in [3] (setting [19]) was 489.399. This molecule showed a Control-VN-MCC in [3] (setting [20]) of -18.0472. This molecule also showed a Control_Avg_AUC in [4] (setting [21]) of 471.352. In test [5] (setting [22]), this molecule registered a Control-MCC of 42.2399.

Molecule `Cl.Oc1ccc2c3c1O[C@H]1[C@@H](O)C=C[C@H]4[C@@H](C2)NCC[C@@]341` [N-Normorphine hydrochloride] returned an MCC13_AUC with MCC13 cells (VN-MCC) of 466.371. In the test with MCC26 cells (VN-MCC), this molecule showed an MCC26_AUC of 408.273. The molecule further gave a UISO_AUC in the test with UISO cells (VN-MCC) of 440.259. In the test with WAGA cells (VP-MCC), this molecule registered a WAGA_AUC of 412.634. For the same molecule, the MKL1_AUC in the test on MKL-1 cells (VP-MCC) was 418.832. The same molecule returned an MKL2_AUC with MKL-2 cells (VP-MCC) of 420.551. The same molecule gave an HACAT_AUC with HACAT cells of 477.868. Further, the HEK293T_AUC with HEK293T cells is listed as 480.826. This molecule displayed an NIH3T3_AUC in the test with NIH-3T3 cells of 490.376. In the test with CRL-7250 cells, this molecule showed a CRL7250_AUC of 485.195. Further, the MCC_Avg_AUC in test [1] came out at 427.82. In test [2], this molecule came in with a Control-VP-MCC of 66.2273 and a VP-MCC_Avg_AUC of 417.339. In test [3], the Control-VN-MCC amounted to 45.2651 and the VN-MCC_Avg_AUC was determined as 438.301. The molecule further displayed a Control_Avg_AUC in test [4] of 483.566. Besides, in test [5], the Control-MCC is 55.7462.

With `CNS(=O)(=O)CCc1ccc2[nH]cc(C3CCN(C)CC3)c2c1` [Naratriptan hydrochloride], the MCC13_AUC in the test on MCC13 cells (VN-MCC) (setting [6]) came out at 448.681. In the test with MCC26 cells (VN-MCC) (setting [7]), this molecule yielded an MCC26_AUC of 402.936. For the same molecule, the UISO_AUC in the test on UISO cells (VN-MCC) (setting [8]) was 436.144. In addition, in the test with WAGA cells (VP-MCC) (setting [9]), the WAGA_AUC is listed as 412.133. Also, the MKL1_AUC with MKL-1 cells (VP-MCC) (setting [10]) turned out to be 385.118. The same molecule returned an MKL2_AUC with MKL-2 cells (VP-MCC) (setting [11]) of 428.785. Moreover, the HACAT_AUC in the test on HACAT cells (setting [12]) stood at 491.601. The HEK293T_AUC with HEK293T cells (setting [13]) amounted to 455.258. In the test on NIH-3T3 cells (setting [14]), this molecule showed an NIH3T3_AUC of 449.036. This molecule also had a CRL7250_AUC with CRL-7250 cells (setting [15]) of 454.782. In [1] (setting [16]), this molecule came in with an MCC_Avg_AUC of 418.966. Moreover, in test [2] (setting [17]), the VP-MCC_Avg_AUC came to 408.679. The molecule also returned a Control-VP-MCC in [2] (setting [18]) of 53.9902. For the same molecule, the VN-MCC_Avg_AUC in test [3] (setting [19]) is 429.254. For the same molecule, the Control-VN-MCC in test [3] (setting [20]) is 33.4153. In addition, in [4] (setting [21]), the Control_Avg_AUC was found to be 462.669. The Control-MCC in [5] (setting [22]) amounted to 43.7027.

The molecule `Cc1ccc([N+](=O)[O-])[c]2c1[O][Hg]2` [Nitromersol] gave an MCC13_AUC in the test with MCC13 cells (VN-MCC) of 325.021. The molecule also yielded an MCC26_AUC in the test with MCC26 cells (VN-MCC) of 361.414. This molecule registered a UISO_AUC in the test on UISO cells (VN-MCC) of 294.101. This molecule yielded a WAGA_AUC in the test with WAGA cells (VP-MCC) of 281.054. The same molecule registered an MKL1_AUC with MKL-1 cells (VP-MCC) of 252.702. The molecule also yielded an MKL2_AUC in the test on MKL-2 cells (VP-MCC) of 228.637. The same molecule registered an HACAT_AUC in the test on HACAT cells of 397.686. Further, the HEK293T_AUC with HEK293T cells worked out at 310.441. Moreover, the NIH3T3_AUC with NIH-3T3 cells stood at 388.302. In addition, the CRL7250_AUC in the test on CRL-7250 cells was 286.086. The molecule also showed an MCC_Avg_AUC in [1] of 290.488. In test [2], this molecule returned a Control-VP-MCC of 91.4976 and a VP-MCC_Avg_AUC of 254.131. In test [3], this molecule displayed a Control-VN-MCC of 18.7838 and a VN-MCC_Avg_AUC of 326.845. Further, in test [4], the Control_Avg_AUC turned out to be 345.629. This molecule gave a Control-MCC in test [5] of 55.1407.
